# Where two headings read alike, the source gives them in different places. Positions of bridges follow the written chain, without caps; N, C: chain ends.
# Experiments:
# in vitro = test: in vitro
# Experimental: This was accomplished by incubating the corresponding peptides in human serum at 37° C. The quantitative analysis of undigested polypeptides was performed using liquid chromatography coupled with tandem mass spectrometry (LC-MS/MS). MCoTI-cyclotides present a very rigid structure,[24] which makes them extremely stable to proteolytic degradation.
# Human serum stability. […]. Peptides were dissolved in water at 10 mg/mL concentration. 150 μg of peptides (15 μL) were mixed with 500 μL of human serum and incubated at 37° C. Samples (30 μL) were taken at various time intervals (0-120 h) and serum proteins were precipitated using 180 μL of acetonitrile containing 0.1% TFA. After centrifugation the pellet was dissolved in 8 M GdmCl and the supernatant was lyophilized and re-dissolved in 5% acetonitrile in water containing 0.1% formic acid. Both the supernatant and solubilized pellet fractions were analyzed by HPLC and LC-MS/MS. Each experiment was done in triplicate.
# [1] = Maximum tolerated dose (MTD) toxicology study
# Text: (§1) Colistin was used as a control antibiotic.[28] […] For this purpose, Applicant employed a P. aeruginosa bacterial peritonitis model.[29] This animal model is a well-established acute infection model and is commonly utilized as a common preclinical screening method for new antibiotics.[30] Peritonitis in Balb/c mice (n=10) was established by intraperitoneal injection of 1.5×10^7 colony forming units (CFU) per mouse of P. aeruginosa (Schroeter) Migula (ATCC 27853).
# Maximum tolerated dose (MTD) toxicology Studies. The MTD was determined using two different endpoints: weight loss and clinical scoring. Clinical scores were evaluated through activity, appearance and body condition, similar to previously published literature (42). […] Any dose escalation that leads to moderate toxicity (clinical score of >2) was ceased and the dose prior served as the MTD. Mice were monitored every hour for 4 h after injection on the first day. After 24 h, mice were monitored twice daily for another two days until weight and clinical scores were returned to normal. Mice that met the criteria for moribund included a >20% weight loss and clinical score of >3 and were euthanized.
# [2] = system: clinical isolates of P. aeruginosa; settings: clinical isolates, n=20
# Experimental: (§2) Broad-spectrum antimicrobial activity was evaluated using the broth microdilution assays against two different pathogens from four different species of bacteria (P. aeruginosa, S. aureus, K. pneumoniae, and E. coli) to determine if the cyclotides retained its potent activity. Broth microdilution assays were utilized to determine the minimum inhibitory concentrations (MICs) of our cyclotides according to the CLSI (formerly NCCLS) guidelines modifications as described below (40). The assay utilized cation-adjusted Mueller-Hinton broth (CAMHB) (Becton, Dickinson and Company, Franklin Lakes, NJ) which was prepared according to the manufacturer's instructions. Cyclotide solutions were prepared as 10× solutions in 0.01% acetic acid. Cyclotide were serially diluted two-fold at concentrations ranging from 25-0.05 μM that contained CAMHB and 0.04% bovine serum albumin (BSA) in polypropylene microtiter plates (Corning, Corning, NY). All bacteria were incubated overnight at 37° C. at 200 rpm in CAMHB and bacterial inoculum was adjusted with additional CAMHB to 0.5 McFarland standard through spectrophotometry at 600 nm. […] Study strains included a total of 20 P. aeruginosa and 20 methicillin resistant S. aureus strains from patients with cystic fibrosis at the Keck Medical Center of the University of Southern California. […] Colistin sulphate (Sigma-Aldrich, St Louis, MO) was used as a reference antibiotic for P. aeruginosa and E. coli, while vancomycin hydrochloride and meropenem trihydrate were used as reference antibiotics for S. aureus and K. pneumoniae.
# [3] = system: P. aeruginosa (Schroeter) Migula (ATCC 27853); test: P. aeruginosa-induced peritonitis murine model; type: in vivo, Balb/c mice; design: reference not given here; settings: single i.p. dose 15 mg/kg, 7 days
# Text: as §1
# P. aeruginosa-induced peritonitis murine model. Eight to 10-week-old Balb/c mice (Jackson Laboratory, Bar Harbor, ME) were housed five in a cage with standard chow and water ad libitum. To establish the model, 1.5×10^7 CFU of log-phase P. aeruginosa ATCC 27853 was injected intraperitoneally. […] Mice were monitored for 7 days and/or euthanized if any mice presented signs of moribundity.
# E. coli = settings: CAMHB
# Experimental: as §2
# K. pneumoniae = settings: CAMHB
# Experimental: as §2
# P. aeruginosa = settings: CAMHB; for MIC against P. aeruginosa: summary over the tested strains
# Experimental: as §2
# S. aureus = settings: CAMHB
# Experimental: as §2
# [4] = system: clinical isolates of methicillin-resistant S. aureus (MRSA); settings: MRSA clinical isolates, n=20
# Experimental: as §2
# [5] = S. aureus BAA977, clindamycin resistant strain
# [6] = S. aureus HH35, methicillin resistant strain
# [7] = S. aureus USA300, methicillin resistant strain
# [8] = summary over the tested strains
Compound,MIC (E. coli; E. coli DS377),MIC (E. coli; E. coli K12),MIC (K. pneumoniae; K. pneumoniae BAA1705),MIC (K. pneumoniae; K. pneumoniae K6),MIC (P. aeruginosa; P. aeruginosa PA27853),MIC against P. aeruginosa (P. aeruginosa),MIC (S. aureus; S. aureus 25973),MIC (S. aureus; [5]),MIC (S. aureus; [6]),MIC (S. aureus; [7]),further results
"CC(C)C[C@H](NC(=O)[C@H](CCCNC(=N)N)NC(=O)CNC(=O)CNC(=O)[C@@H](N)CCCNC(=N)N)C(=O)N[C@H]1CSSC[C@@H](C(=O)N[C@H](C(=O)NCC(=O)N[C@@H](CCCNC(=N)N)C(N)=O)C(C)C)NC(=O)[C@H](C(C)C)NC(=O)[C@@H]2CSSC[C@H](NC(=O)[C@H](Cc3ccc(O)cc3)NC1=O)C(=O)N[C@@H](CCCNC(=N)N)C(=O)N[C@@H](CCCNC(=N)N)C(=O)N[C@@H](CCCNC(=N)N)C(=O)N[C@@H](Cc1ccccc1)C(=O)N2 [PG-1, reference compound]",,,,,,,,,,,"degradation in human serum within the first 24 h (in words) (in vitro; 37° C.): significant degradation; metabolised at 24 h, 0.29 mg/mL (in vitro; human, human serum): ~55%; half-life at 0.29 mg/mL (in vitro; human, human serum, t1/2 in human serum, 37° C., LC-MS/MS): 30 ± 3 h; MTD at 3 days ([1]; Balb/c, mouse, in vivo, ip): 5 mg/kg"
Colistin,,,,,,,,,,,"P. aeruginosa MIC50 [2]: ≤0.2 µM; P. aeruginosa MIC90 [2]: 0.4 µM; P. aeruginosa MICrange [2]: ≤0.2 to 0.4 µM; maximum tolerated dose (well tolerated intraperitoneal dose) ([1]; Balb/c mice, single i.p. dose, endpoints weight loss and clinical score): 15 mg/kg; hazard ratio [HR] (survival) ([3]; 12.3 μmol/kg, as printed in legend of FIG. 4): 24.8; hazard ratio [HR] (survival) [3]: 0.040"
CC[C@H](C)[C@@H]1NC(=O)[C@@H]2CSSC[C@@H]3NC(=O)[C@H](C(C)C)NC(=O)CNC(=O)CNC(=O)CNC(=O)[C@H](CCCNC(=N)N)NC(=O)[C@H](CCCNC(=N)N)NC(=O)CNC(=O)[C@H](C(C)C)NC(=O)[C@@H]4CSSC[C@H](NC(=O)[C@H](CC(C)C)NC(=O)[C@H](CCCNC(=N)N)NC(=O)CNC(=O)CNC(=O)CNC(=O)[C@H](CO)NC(=O)CNC(=O)[C@H](CO)NC(=O)CNC(=O)[C@@H]5CSSC[C@H](NC(=O)[C@H](CC(=O)O)NC(=O)[C@H](CO)NC(=O)[C@H](CC(=O)O)NC(=O)[C@H](CCCNC(=N)N)NC(=O)[C@H](CCCNC(=N)N)NC(=O)[C@H](CSSC[C@H](NC1=O)C(=O)N[C@@H](CCCNC(=N)N)C(=O)NCC(=O)N[C@@H](CC(N)=O)C(=O)NCC(=O)N[C@@H](Cc1ccc(O)cc1)C(=O)N5)NC(=O)[C@H](CCCNC(=N)N)NC(=O)[C@H](CCC(N)=O)NC(=O)[C@H](CC(C)C)NC(=O)[C@H]([C@@H](C)CC)NC(=O)[C@H](CCCCN)NC(=O)[C@@H]1CCCN1C3=O)C(=O)N1CCC[C@H]1C(=O)NCC(=O)N[C@@H](C)C(=O)N2)C(=O)N[C@@H](Cc1ccc(O)cc1)C(=O)N[C@H]1CSSC[C@H](NC(=O)[C@H](Cc2ccccc2)NC(=O)[C@H](CCCNC(=N)N)NC(=O)[C@H](CCCNC(=N)N)NC(=O)[C@H](CCCNC(=N)N)NC1=O)C(=O)N[C@@H](C(C)C)C(=O)N4 [MCo-PG4],1.6 µM,1.6 µM,12.5 µM,12.5 µM,1.6 µM,1.6 µM,12.5 µM,12.5 µM,12.5 µM,12.5 µM,
cyclo[GGVCPKILQRCRRDSDCPGACICRGNGYCGSGSGRLCYCRRRFCVCVGR] (cyclo(GGVCPKILQRCRRDSDCPGACICRGNGYCGSGSGRLCYCRRRFCVCVGR); not fully specified; printed as cyclo[GGVCPKILQRCRRDSDCPGACICRGNGYCGSGSGRLCYCRRRFCVCVGR]; cysteine pairing not given here) [MCo-PG5],1.6 µM,1.6 µM,6.2 µM,6.2 µM,3.1 µM,,12.5 µM,12.5 µM,12.5 µM,12.5 µM,MIC (P. aeruginosa; P. aeruginosa PAO1): 3.1 µM
"CN[C@H](CC(C)C)C(=O)N[C@H]1C(=O)N[C@@H](CC(N)=O)C(=O)N[C@H]2C(=O)N[C@H]3C(=O)N[C@H](C(=O)N[C@H](C(=O)O)c4cc(O)cc(O)c4-c4cc3ccc4O)[C@H](O)c3ccc(c(Cl)c3)Oc3cc2cc(c3O[C@@H]2O[C@H](CO)[C@@H](O)[C@H](O)[C@H]2O[C@H]2C[C@](C)(N)[C@H](O)[C@H](C)O2)Oc2ccc(cc2Cl)[C@H]1O [Vancomycin, reference compound]",,,,,,,,,,,S. aureus MICrange [4]: 0.5 to 1.4 µM
"cyclo(GGVCPKILQRCRRDSDCPGACICRGNGYCGSGSGGCLCYCRRRFCVCVCRR) (disulfide 4-21, 11-23, 17-29, 36-49, 38-47, 40-45 (inferred); ring closure inferred) [MCo-PG3]",,>25 µM,,>25 µM,25 µM,25 µM,>25 µM,>25 µM,>25 µM,,MIC against E. coli (E. coli; [8]): above 25 μM; MIC against K. pneumoniae (K. pneumoniae; [8]): above 25 μM; MIC against S. aureus (S. aureus; [8]): above 25 μM

# — patent US20240092846A1, “ENGINEERED CYCLOTIDES WITH POTENT BROAD ANTIMICROBIAL ACTIVITY” (priority 2022, published 2024)
